Assay results taken from ChEMBL document CHEMBL5625175, “Quinazoline-based VEGFR-2 inhibitors as potential anti-angiogenic agents: A contemporary perspective of SAR and molecular docking studies” (Eur J Med Chem, 2023).
In brackets after ≈: the same amount, converted by molar mass.

Legend:
[1] = system: MHCC97H; assay: Antiproliferative activity against human MHCC97H cells assessed as reduction in cell viability incubated for 48 hrs by CCK-8 assay; type: functional, cell-based
[2] = system: HUVEC; assay: Antiproliferative activity against HUVEC cells assessed as reduction in cell viability incubated for 48 hrs by CCK-8 assay; type: functional, cell-based; conditions: Homo sapiens
[3] = system: L02; assay: Cytotoxicity against human L02 cells assessed as cell growth inhibition measured after 48 hrs by CCK-8 assay; type: functional, cell-based; conditions: L02, 48 h
[4] = system: HEK293; assay: Cytotoxicity against HEK293 cells assessed as cell growth inhibition measured after 48 hrs by CCK-8 assay; type: functional, cell-based; conditions: Homo sapiens, HEK293, 48 h
[5] = system: B16; assay: Antiproliferative activity against mouse B16 cells assessed as reduction in cell viability incubated for 48 hrs by MTT assay; type: functional, cell-based; conditions: B16, 48 h
[6] = system: HCT-116; assay: cells; conditions: Homo sapiens, HCT-116, 48 h
[7] = system: HCT-116; assay: Cytotoxicity against human HCT-116 cells assessed as cell growth inhibition; type: functional, cell-based
[8] = system: MCF7; assay: cells; conditions: Homo sapiens, MCF7, 48 h
[9] = system: HepG2; assay: Cytotoxicity against human HepG2 cells assessed as cell growth inhibition; type: functional, cell-based
[10] = system: WISH; assay: Cytotoxicity against human WISH cells assessed as cell growth inhibition; type: functional, cell-based
[11] = system: MCF7; assay: Growth inhibition of human MCF7 cells incubated for 24 hrs by MTT assay; type: functional
[12] = molecular target: T1, Vascular endothelial growth factor receptor 2 (Homo sapiens, UniProt P35968)
T1 sequence (P35968 whole entry): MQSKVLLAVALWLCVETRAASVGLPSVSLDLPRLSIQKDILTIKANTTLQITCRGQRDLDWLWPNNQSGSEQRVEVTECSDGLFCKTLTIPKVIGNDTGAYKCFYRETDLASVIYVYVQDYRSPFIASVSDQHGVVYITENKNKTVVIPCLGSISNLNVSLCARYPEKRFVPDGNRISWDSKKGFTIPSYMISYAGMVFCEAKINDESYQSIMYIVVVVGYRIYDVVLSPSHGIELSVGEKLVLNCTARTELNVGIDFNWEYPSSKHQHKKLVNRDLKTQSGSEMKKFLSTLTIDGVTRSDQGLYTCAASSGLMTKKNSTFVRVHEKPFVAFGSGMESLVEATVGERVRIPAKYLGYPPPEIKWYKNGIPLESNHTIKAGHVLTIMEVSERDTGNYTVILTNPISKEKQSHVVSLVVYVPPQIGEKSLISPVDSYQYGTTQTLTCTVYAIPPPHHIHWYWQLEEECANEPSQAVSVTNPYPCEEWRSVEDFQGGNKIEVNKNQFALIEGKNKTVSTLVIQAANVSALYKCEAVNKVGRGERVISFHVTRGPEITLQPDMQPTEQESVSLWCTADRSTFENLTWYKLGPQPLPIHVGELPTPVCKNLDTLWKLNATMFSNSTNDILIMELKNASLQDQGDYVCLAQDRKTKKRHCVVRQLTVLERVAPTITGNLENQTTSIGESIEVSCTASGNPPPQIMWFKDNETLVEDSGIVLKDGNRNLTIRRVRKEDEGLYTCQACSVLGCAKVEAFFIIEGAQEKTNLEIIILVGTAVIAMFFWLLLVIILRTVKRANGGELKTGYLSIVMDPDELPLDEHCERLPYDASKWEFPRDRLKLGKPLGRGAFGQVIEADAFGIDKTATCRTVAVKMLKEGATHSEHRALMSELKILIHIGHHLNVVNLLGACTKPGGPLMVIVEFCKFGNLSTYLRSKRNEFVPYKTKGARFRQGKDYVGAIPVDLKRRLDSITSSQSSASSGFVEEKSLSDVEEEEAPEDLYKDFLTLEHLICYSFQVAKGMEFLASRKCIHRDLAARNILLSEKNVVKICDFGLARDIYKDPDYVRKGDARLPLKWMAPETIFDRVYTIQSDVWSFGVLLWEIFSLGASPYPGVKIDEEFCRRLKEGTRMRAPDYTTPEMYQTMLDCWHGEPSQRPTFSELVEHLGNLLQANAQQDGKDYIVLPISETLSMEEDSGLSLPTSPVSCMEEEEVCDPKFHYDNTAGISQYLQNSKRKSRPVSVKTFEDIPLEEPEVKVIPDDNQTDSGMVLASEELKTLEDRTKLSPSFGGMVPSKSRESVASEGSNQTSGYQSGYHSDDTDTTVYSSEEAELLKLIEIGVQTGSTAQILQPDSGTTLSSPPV

[13] = system: HCT-116; assay: Growth inhibition of human HCT-116 cells incubated for 24 hrs by MTT assay; type: functional
[14] = system: HepG2; assay: Growth inhibition of human HepG2 cells incubated for 24 hrs by MTT assay; type: functional
[15] = Intrinsic clearance in human hepatocytes at 0.5 uM measured after 10 mins by LC-MS/MS analysis; type: ADME, cell-based, Hepatocyte
[16] = molecular target: T1, Vascular endothelial growth factor receptor 2; assay: Inhibition of VEGFR-2 (unknown origin) by Kinase-Glo Max assay
[17] = Antiproliferative activity against human WI-38 cells assessed as reduction in cell growth measured after 24 hrs by MTT assay; type: toxicity, cell-based
[18] = system: MCF7; assay: Antiproliferative activity against human MCF7 cells assessed as cell growth inhibition measured after 48 hrs by MTT assay; type: functional, cell-based; conditions: MCF7, 48 h
[19] = system: HCT-116; assay: Antiproliferative activity against human HCT-116 cells assessed as cell growth inhibition measured after 48 hrs by MTT assay; type: functional, cell-based; conditions: HCT-116, 48 h
[20] = system: HUVEC; assay: Antiproliferative activity against VEGF-stimulated HUVEC cells assessed as cell growth inhibition measured after 24 hrs by BrdUrd incorporation based spectrophotometric analysis; type: functional; conditions: Homo sapiens
[21] = molecular target: T1, Vascular endothelial growth factor receptor 2; assay: Inhibition of human VEGFR-2 using biotinylated synthetic peptide biotin-aminohexyl-EEEEYFELVAKKKK-NH2 as substrate pre-incubated for 30 mins and measured after 30 mins by FRET assay
[22] = molecular target: T2, Vascular endothelial growth factor receptor 1 (Homo sapiens, UniProt P17948); assay: Inhibition of VEGFR-1 (unknown origin) by HTRF method
T2 sequence (P17948 whole entry): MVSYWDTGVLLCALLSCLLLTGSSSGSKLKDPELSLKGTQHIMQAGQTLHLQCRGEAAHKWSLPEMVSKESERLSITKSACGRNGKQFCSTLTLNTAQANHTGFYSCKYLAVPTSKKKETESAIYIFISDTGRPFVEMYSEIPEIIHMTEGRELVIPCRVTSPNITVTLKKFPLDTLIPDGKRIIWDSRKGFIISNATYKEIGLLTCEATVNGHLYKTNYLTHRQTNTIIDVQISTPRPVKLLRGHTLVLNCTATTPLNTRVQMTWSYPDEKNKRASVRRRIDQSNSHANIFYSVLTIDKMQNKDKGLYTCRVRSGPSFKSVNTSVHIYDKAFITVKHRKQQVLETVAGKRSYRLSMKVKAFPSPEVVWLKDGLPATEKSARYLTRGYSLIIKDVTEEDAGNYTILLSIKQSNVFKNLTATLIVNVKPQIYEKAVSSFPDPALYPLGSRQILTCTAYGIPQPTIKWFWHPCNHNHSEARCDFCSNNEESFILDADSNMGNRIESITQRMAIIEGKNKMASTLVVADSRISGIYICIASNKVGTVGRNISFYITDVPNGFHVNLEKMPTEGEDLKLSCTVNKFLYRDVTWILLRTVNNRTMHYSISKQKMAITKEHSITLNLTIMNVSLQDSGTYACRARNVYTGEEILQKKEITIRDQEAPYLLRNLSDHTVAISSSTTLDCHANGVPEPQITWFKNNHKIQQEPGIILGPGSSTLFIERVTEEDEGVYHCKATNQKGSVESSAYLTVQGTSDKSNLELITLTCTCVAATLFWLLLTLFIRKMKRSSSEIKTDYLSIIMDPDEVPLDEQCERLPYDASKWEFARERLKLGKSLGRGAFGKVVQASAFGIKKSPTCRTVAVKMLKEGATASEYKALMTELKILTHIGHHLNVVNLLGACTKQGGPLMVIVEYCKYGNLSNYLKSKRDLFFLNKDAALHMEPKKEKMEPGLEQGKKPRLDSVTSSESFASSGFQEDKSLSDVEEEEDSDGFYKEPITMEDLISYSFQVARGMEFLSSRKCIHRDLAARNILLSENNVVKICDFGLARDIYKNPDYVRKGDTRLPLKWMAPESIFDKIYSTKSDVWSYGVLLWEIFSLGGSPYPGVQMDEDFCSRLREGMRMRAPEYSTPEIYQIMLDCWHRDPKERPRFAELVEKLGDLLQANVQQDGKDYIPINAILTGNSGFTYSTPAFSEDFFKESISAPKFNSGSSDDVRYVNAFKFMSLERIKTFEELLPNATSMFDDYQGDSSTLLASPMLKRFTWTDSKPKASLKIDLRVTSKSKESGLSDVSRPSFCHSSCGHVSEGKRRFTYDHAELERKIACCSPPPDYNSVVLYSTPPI

[23] = molecular target: T2, Vascular endothelial growth factor receptor 1; assay: Inhibition of VEGFR-1 (unknown origin) at 10 uM relative to control
[24] = molecular target: T1, Vascular endothelial growth factor receptor 2; remark: listed apart in the source
[25] = molecular target: T2, Vascular endothelial growth factor receptor 1; assay: Inhibition of VEGFR-1 (unknown origin)
[26] = system: PC-3; assay: Antiproliferative activity against human PC-3 cells assessed as reduction in cell growth measured after 24 hrs by MTT assay; type: functional, cell-based; conditions: PC-3, 24 h
[27] = system: MCF7; assay: Antiproliferative activity against human MCF7 cells assessed as reduction in cell growth measured after 24 hrs by MTT assay; type: functional, cell-based; conditions: MCF7, 24 h
[28] = system: HepG2; assay: Antiproliferative activity against human HepG2 cells assessed as reduction in cell growth measured after 24 hrs by MTT assay; type: functional, cell-based; conditions: HepG2, 24 h
[29] = system: MCF7; assay: Antitumor activity against human MCF7 cells assessed as reduction in cell viability incubated for 48 hrs by CCK-8 assay; type: functional, cell-based; conditions: MCF7, 48 h
[30] = system: A549; assay: Antitumor activity against human A549 cells assessed as reduction in cell viability incubated for 48 hrs by CCK-8 assay; type: functional, cell-based; conditions: A549, 48 h
[31] = system: HT-29; assay: Antitumor activity against human HT-29 cells assessed as reduction in cell viability incubated for 48 hrs by CCK-8 assay; type: functional, cell-based; conditions: HT-29, 48 h
[32] = system: A549; assay: cells; conditions: Homo sapiens, A549, 48 h
[33] = system: NCI-H460; assay: cells; conditions: Homo sapiens, NCI-H460, 48 h
[34] = system: MCF7; assay: cells; conditions: Homo sapiens, MCF7, 48 h; remark: listed apart in the source
[35] = system: Macrophage; assay: cells; conditions: Homo sapiens, 48 h

Molecule `COCCOc1cc2ncnc(Oc3ccc(NC(=O)C4(C(=O)Nc5ccc(F)cc5)CC4)cc3F)c2c2c1OCCO2` has an IC50 [1] of 15.1 µg/mL (≈ 25.5 µM), an IC50 [2] of 12.6 µg/mL (≈ 21.3 µM) and an IC50 [3] of 12.2 µg/mL (≈ 20.6 µM). For the same molecule, the IC50 [4] was 11.9 µg/mL (≈ 20.1 µM).
`CNC(=O)c1cc(Oc2ccc(NC(=O)Nc3ccc(Cl)c(C(F)(F)F)c3)cc2)ccn1` [SORAFENIB] gave an IC50 [5] of 9.29 µM, an IC50 [6] of 10.6 µM and an IC50 [7] of 6.82 µM. It also gave an IC50 [8] of 17.9 µM, an IC50 [9] of 19.3 µM and an IC50 [10] of 17.5 µM.
`O=C(Cn1c(=O)c2ccccc2n(Cc2ccccc2)c1=O)Nc1ccc(C(=O)N/N=C/c2ccc(Cl)cc2)cc1` gave a GI50 [11] of 5.27 µM, an IC50 [12] of 0.12 µM and a GI50 [13] of 5.69 µM. For the same molecule, the GI50 [14] was 9.16 µM.
`Cc1ccc2nc(-c3cccnc3)nc(NNC(=S)NC3CCCCC3)c2c1` gave an IC50 [7] of 3.37 µM, an IC50 [9] of 10.4 µM and an IC50 [10] of 49.6 µM.
With `COc1cc2ncnc(Nc3cc(O)c(C)cc3F)c2cc1OC` the CLH [15] was 91.9 µL/min.
Work on `CNC(=O)c1c(C)oc2cc(Oc3ncnc4cc(OC)c(OC)cc34)ccc12` [FRUQUINTINIB] yielded an IC50 [16] of 0.035 µM.
`COc1cc2ncnc(Oc3cccc(NC(=S)Nc4ccc(Cl)c(C(F)(F)F)c4)c3)c2cc1OC` showed an IC50 [5] of 6.11 µM, an IC50 [6] of 9.13 µM and an IC50 [8] of 17.7 µM.
Molecule `CCn1c(SCC(=O)NNC(=O)c2ccccc2)nc2ccc([N+](=O)[O-])cc2c1=O` has an IC50 at 24 h [17] of 146 µg/mL (≈ 341 µM).
With `C/C(=N\NC(=O)c1ccccc1O)c1ccc(NC(=O)CSc2nc3ccccc3c(=O)n2-c2ccccc2)cc1` the IC50 [18] was 6.77 µM and the IC50 [19] was 5 µM.
In the case of `COc1cc2nc(-c3ccccc3)n(-c3nnc(-c4ccc(Cl)cc4)s3)c(=O)c2cc1OC`, the IC50 [20] is reported as 0.0055 µM and the IC50 [21] is reported as 0.0038 µM.
Molecule `COc1cc2ncnc(Nc3ccc(-c4noc(Cc5cc6ccccc6[nH]5)n4)cc3)c2cc1OC` has an IC50 [22] of 0.017 µM and an inhibition [23] of 91%.
Molecule `COc1cc2ncnc(Nc3ccsc3C(=O)Nc3ccc(F)c(Cl)c3)c2cc1OC` has an IC50 [24] of 0.087 µM and an IC50 [25] of 0.11 µM.
For `COc1cccc2c1C(=O)c1c(O)c3c(c(O)c1C2=O)C[C@@](O)(C(=O)CO)C[C@@H]3O[C@H]1C[C@H](N)[C@H](O)[C@H](C)O1` [DOXORUBICIN], the IC50 [26] was 8.87 µg/mL (≈ 16.3 µM), the IC50 [27] was 6.75 µg/mL (≈ 12.4 µM) and the IC50 [28] was 7.94 µg/mL (≈ 14.6 µM).
For `COc1cc2nccc(Oc3ccc(NC(=O)C4(C(=O)Nc5ccc(F)cc5)CC4)cc3)c2cc1OC` [CABOZANTINIB], the IC50 [1] was 25 µg/mL (≈ 49.8 µM) and the IC50 [2] was 2.7 µg/mL (≈ 5.38 µM).
Molecule `Cc1ccc(Nc2ncnc3cc(NC(=O)Nc4ccc(Cl)c(C(F)(F)F)c4)ccc23)cc1` has an IC50 [29] of 2.49 µM, an IC50 [30] of 1.76 µM and an IC50 [31] of 0.81 µM.
For `COc1ccc(Cc2nnc(COc3ncnc4ccccc34)o2)cc1OC`, the IC50 [32] was 0.58 µM, the IC50 [33] was 0.39 µM and the IC50 [34] was 0.35 µM. It also gave an IC50 [35] of 288 µM.
